Paper PMC5513037, “Examining the influence of specificity ligands and ATP-competitive ligands on the overall effectiveness of bivalent kinase inhibitors” (Proteome Science, 2017)

Experiments:
Test in all cases: KAM-matrix competition in K562 lysate;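 for 0.001 uM KAM: median log10 fold change of treatment over DMSO control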;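 for 0.01 uM KAM: median log10 fold change of treatment over DMSO control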;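 for 0.1 uM KAM: median log10 fold change of treatment over DMSO control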;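 for 1 uM KAM: median log10 fold change of treatment over DMSO control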;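 for 10 uM KAM: median log10 fold change of treatment over DMSO control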
Format in all cases: binding
[1] = target: T1, PKD1 (Homo sapiens, UniProt P98161);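 for 0.001 uM KAM: median log10 fold change of treatment over DMSO control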;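 for 0.01 uM KAM: median log10 fold change of treatment over DMSO control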;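 for 0.1 uM KAM: median log10 fold change of treatment over DMSO control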;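 for 1 uM KAM: median log10 fold change of treatment over DMSO control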;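 for 10 uM KAM: median log10 fold change of treatment over DMSO control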
T1 construct: endogenous in cells; host or cells: K562
Procedure: (§1) Supplement 12953_2017_125_MOESM1_ESM.zip/MS_Supp Info.xlsx, sheet "KAM" | column: 10 uM KAM; 1 uM KAM; 0.1 uM KAM; 0.01 uM KAM; 0.001 uM KAM; RB50

[2] = target: T2, VRK1 (Homo sapiens, UniProt Q99986);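 for 0.001 uM KAM: median log10 fold change of treatment over DMSO control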;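 for 0.01 uM KAM: median log10 fold change of treatment over DMSO control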;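 for 0.1 uM KAM: median log10 fold change of treatment over DMSO control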;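 for 1 uM KAM: median log10 fold change of treatment over DMSO control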;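 for 10 uM KAM: median log10 fold change of treatment over DMSO control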
T2 construct: endogenous in cells; host or cells: K562
T2 sequence (Q99986 1-396): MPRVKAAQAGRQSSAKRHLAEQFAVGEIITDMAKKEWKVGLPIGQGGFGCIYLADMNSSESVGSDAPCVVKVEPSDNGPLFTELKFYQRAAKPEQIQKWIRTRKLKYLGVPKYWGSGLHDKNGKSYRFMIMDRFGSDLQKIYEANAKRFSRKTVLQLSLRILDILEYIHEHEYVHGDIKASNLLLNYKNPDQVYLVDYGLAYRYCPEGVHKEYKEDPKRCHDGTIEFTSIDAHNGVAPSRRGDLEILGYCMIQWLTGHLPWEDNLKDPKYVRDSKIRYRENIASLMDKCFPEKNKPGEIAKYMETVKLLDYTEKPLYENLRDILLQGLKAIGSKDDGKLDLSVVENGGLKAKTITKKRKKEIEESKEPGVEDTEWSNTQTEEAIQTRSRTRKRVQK
Procedure: as §1

[3] = target: T3, NPR2 (Homo sapiens, UniProt P20594);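 for 0.001 uM KAM: median log10 fold change of treatment over DMSO control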;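 for 0.01 uM KAM: median log10 fold change of treatment over DMSO control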;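 for 0.1 uM KAM: median log10 fold change of treatment over DMSO control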;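 for 1 uM KAM: median log10 fold change of treatment over DMSO control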;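 for 10 uM KAM: median log10 fold change of treatment over DMSO control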
T3 construct: endogenous in cells; host or cells: K562
T3 sequence (P20594 23-1047): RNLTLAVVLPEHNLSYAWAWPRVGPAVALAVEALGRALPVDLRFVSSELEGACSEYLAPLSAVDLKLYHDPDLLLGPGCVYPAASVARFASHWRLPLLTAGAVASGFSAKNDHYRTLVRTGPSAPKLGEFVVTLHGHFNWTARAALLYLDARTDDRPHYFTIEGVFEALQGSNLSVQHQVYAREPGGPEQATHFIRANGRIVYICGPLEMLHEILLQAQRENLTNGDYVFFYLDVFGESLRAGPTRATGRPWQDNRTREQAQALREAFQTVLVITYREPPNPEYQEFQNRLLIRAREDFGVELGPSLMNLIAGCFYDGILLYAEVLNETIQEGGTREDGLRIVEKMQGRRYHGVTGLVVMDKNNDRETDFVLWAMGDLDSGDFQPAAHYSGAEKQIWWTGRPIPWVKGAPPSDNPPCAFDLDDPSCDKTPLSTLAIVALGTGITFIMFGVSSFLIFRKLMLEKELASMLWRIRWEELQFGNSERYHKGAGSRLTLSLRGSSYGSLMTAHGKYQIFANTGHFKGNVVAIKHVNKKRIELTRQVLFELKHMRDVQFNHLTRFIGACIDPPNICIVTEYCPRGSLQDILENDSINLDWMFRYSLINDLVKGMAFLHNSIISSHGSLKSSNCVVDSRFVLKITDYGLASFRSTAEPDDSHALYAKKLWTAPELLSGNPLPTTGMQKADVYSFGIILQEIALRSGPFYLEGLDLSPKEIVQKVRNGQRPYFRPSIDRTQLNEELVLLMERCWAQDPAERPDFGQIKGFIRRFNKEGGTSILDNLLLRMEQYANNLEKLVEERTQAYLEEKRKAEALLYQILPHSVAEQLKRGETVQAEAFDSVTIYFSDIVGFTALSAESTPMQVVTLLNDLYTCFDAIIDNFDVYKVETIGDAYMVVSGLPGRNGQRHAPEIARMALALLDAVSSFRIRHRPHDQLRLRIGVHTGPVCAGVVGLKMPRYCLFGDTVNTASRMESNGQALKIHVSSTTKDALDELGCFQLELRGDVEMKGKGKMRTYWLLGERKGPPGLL
Procedure: as §1

[4] = target: T4, SIK3 (Homo sapiens, UniProt Q9Y2K2);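 for 0.001 uM KAM: median log10 fold change of treatment over DMSO control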;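 for 0.01 uM KAM: median log10 fold change of treatment over DMSO control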;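 for 0.1 uM KAM: median log10 fold change of treatment over DMSO control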;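 for 1 uM KAM: median log10 fold change of treatment over DMSO control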;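 for 10 uM KAM: median log10 fold change of treatment over DMSO control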
T4 construct: endogenous in cells; host or cells: K562
Procedure: as §1

[5] = target: T5, ROCK2 (Homo sapiens, UniProt O75116);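 for 0.001 uM KAM: median log10 fold change of treatment over DMSO control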;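 for 0.01 uM KAM: median log10 fold change of treatment over DMSO control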;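 for 0.1 uM KAM: median log10 fold change of treatment over DMSO control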;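 for 1 uM KAM: median log10 fold change of treatment over DMSO control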;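 for 10 uM KAM: median log10 fold change of treatment over DMSO control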
T5 construct: endogenous in cells; host or cells: K562
Procedure: as §1

[6] = target: T6, RAF1 (Homo sapiens, UniProt P04049);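 for 0.001 uM KAM: median log10 fold change of treatment over DMSO control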;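 for 0.01 uM KAM: median log10 fold change of treatment over DMSO control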;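 for 0.1 uM KAM: median log10 fold change of treatment over DMSO control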;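 for 1 uM KAM: median log10 fold change of treatment over DMSO control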;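 for 10 uM KAM: median log10 fold change of treatment over DMSO control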
T6 construct: endogenous in cells; host or cells: K562
Procedure: as §1

[7] = KAM 0.001-10 uM, read-out: RB50 (the source's name)

T4 sequence (Q9Y2K2 whole entry): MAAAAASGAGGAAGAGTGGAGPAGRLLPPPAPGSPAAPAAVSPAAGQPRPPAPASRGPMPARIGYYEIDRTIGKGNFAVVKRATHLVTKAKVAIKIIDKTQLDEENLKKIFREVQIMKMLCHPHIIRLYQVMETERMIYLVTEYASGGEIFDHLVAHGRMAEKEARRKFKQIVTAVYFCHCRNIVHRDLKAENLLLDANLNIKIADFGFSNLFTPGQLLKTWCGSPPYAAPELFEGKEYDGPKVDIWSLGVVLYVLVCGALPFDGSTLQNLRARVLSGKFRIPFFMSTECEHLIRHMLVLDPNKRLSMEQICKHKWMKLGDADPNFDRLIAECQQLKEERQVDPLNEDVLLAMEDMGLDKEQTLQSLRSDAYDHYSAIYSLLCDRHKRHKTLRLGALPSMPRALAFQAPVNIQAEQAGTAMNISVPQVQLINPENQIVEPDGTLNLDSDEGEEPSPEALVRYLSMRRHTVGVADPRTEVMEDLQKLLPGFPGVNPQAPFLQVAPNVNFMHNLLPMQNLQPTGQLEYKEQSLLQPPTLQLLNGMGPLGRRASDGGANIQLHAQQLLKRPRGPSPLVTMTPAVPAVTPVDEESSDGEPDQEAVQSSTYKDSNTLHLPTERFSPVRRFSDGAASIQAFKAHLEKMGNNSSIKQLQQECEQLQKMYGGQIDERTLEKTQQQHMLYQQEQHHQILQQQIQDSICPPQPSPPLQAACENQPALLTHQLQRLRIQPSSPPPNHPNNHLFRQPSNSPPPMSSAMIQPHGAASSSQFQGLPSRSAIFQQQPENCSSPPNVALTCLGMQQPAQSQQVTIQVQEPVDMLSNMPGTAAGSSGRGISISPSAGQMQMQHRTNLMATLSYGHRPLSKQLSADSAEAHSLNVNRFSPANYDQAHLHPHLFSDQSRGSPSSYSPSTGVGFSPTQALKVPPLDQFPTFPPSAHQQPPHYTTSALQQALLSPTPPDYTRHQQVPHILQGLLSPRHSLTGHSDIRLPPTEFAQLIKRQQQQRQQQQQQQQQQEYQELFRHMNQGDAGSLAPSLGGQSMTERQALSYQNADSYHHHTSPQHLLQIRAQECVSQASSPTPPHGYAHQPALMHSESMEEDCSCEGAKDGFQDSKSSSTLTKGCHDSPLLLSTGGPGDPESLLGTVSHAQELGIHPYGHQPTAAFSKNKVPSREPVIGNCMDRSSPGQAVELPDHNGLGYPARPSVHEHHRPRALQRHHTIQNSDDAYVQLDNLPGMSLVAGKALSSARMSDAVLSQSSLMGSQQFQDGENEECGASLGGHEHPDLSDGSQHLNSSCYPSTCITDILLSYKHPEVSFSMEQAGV
T5 sequence (O75116 whole entry): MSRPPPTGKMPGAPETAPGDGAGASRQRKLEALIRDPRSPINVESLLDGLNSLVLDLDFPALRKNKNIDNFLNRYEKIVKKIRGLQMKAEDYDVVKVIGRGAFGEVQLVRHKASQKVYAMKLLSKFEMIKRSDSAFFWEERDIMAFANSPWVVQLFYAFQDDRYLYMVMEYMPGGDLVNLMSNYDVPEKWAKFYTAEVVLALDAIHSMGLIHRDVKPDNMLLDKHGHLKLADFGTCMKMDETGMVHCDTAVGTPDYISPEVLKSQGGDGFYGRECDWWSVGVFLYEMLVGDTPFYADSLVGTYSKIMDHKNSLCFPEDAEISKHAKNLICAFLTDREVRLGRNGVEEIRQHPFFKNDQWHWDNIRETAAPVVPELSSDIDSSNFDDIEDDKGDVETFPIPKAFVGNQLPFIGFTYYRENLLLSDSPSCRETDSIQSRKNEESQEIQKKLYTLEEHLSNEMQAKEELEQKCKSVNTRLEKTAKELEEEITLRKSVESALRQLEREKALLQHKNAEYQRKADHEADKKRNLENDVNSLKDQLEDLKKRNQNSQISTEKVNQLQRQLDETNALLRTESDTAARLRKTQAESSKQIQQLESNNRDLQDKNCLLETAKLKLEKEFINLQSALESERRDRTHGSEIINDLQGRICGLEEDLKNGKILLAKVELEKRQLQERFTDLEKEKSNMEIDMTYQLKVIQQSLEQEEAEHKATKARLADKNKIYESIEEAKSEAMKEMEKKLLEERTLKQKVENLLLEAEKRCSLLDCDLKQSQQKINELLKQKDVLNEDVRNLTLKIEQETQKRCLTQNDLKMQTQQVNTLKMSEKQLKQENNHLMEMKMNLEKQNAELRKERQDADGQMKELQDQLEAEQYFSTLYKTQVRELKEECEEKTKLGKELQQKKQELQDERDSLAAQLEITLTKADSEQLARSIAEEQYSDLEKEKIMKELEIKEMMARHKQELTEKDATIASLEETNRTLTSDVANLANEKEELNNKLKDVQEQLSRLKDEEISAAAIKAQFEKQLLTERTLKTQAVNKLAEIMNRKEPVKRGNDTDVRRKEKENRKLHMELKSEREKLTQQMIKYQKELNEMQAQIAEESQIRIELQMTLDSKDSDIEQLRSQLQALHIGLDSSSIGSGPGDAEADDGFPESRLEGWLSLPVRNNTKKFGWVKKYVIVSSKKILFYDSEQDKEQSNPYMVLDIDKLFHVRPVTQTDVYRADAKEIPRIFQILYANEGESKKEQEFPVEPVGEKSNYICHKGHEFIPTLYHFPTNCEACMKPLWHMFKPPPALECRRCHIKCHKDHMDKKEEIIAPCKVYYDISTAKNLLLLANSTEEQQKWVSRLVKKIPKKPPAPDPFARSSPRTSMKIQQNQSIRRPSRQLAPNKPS
T6 sequence (P04049 whole entry): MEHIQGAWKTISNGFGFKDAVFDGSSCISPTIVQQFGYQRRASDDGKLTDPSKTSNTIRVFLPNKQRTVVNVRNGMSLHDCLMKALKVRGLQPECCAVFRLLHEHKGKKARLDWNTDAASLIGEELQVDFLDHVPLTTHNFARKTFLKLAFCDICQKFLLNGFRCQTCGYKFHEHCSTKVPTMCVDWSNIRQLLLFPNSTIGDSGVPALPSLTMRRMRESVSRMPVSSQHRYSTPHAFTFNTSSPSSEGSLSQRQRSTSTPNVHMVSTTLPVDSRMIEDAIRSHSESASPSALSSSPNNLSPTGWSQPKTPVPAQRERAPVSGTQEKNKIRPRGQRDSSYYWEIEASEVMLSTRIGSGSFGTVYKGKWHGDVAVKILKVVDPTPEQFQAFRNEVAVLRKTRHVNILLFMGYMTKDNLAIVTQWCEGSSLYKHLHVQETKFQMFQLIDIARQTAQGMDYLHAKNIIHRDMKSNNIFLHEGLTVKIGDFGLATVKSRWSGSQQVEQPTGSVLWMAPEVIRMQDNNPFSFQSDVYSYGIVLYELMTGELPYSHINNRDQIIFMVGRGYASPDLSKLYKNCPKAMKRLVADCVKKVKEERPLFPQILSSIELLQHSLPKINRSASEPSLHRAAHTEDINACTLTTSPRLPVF

`N#CCc1ccc(Nc2nc(NCCCN)cc(Nc3cc(C4CC4)[nH]n3)n2)cc1` [KAM] was tested, and the IC50 [1, 7] was over 10 µM, the “0.001 uM KAM” value ([1]; relative to 0 uM KAM = 0) was -0.05857 and the “0.01 uM KAM” value ([1]; relative to 0 uM KAM = 0) was 0.006072. The “0.1 uM KAM” value ([1]; relative to 0 uM KAM = 0) was -0.01241, the “1 uM KAM” value ([1]; relative to 0 uM KAM = 0) was -0.0439 and the “10 uM KAM” value ([1]; relative to 0 uM KAM = 0) was 0.04844. For the same compound, the IC50 [2, 7] was over 10 µM, the “0.001 uM KAM” value ([2]; relative to 0 uM KAM = 0) was 0.05319 and the “0.01 uM KAM” value ([2]; relative to 0 uM KAM = 0) was 0.02372. The “0.1 uM KAM” value ([2]; relative to 0 uM KAM = 0) was 0.08305, the “1 uM KAM” value ([2]; relative to 0 uM KAM = 0) was 0.1248 and the “10 uM KAM” value ([2]; relative to 0 uM KAM = 0) was 0.03089. For the same compound, the IC50 [3, 7] was over 10 µM, the “0.001 uM KAM” value ([3]; relative to 0 uM KAM = 0) was -0.04196 and the “0.01 uM KAM” value ([3]; relative to 0 uM KAM = 0) was -0.03427. For the same compound, the “0.1 uM KAM” value ([3]; relative to 0 uM KAM = 0) was -0.06644, the “1 uM KAM” value ([3]; relative to 0 uM KAM = 0) was -0.002813 and the “10 uM KAM” value ([3]; relative to 0 uM KAM = 0) was -0.07947. For the same compound, the IC50 [4, 7] was over 10 µM, the “0.001 uM KAM” value ([4]; relative to 0 uM KAM = 0) was -0.07223 and the “0.01 uM KAM” value ([4]; relative to 0 uM KAM = 0) was -0.0771. The “0.1 uM KAM” value ([4]; relative to 0 uM KAM = 0) was -0.08847, the “1 uM KAM” value ([4]; relative to 0 uM KAM = 0) was -0.01623 and the “10 uM KAM” value ([4]; relative to 0 uM KAM = 0) was -0.07209. The IC50 [5, 7] was over 10 µM, the “0.001 uM KAM” value ([5]; relative to 0 uM KAM = 0) was 0.005547 and the “0.01 uM KAM” value ([5]; relative to 0 uM KAM = 0) was 0.004918. The “0.1 uM KAM” value ([5]; relative to 0 uM KAM = 0) was -0.08686, the “1 uM KAM” value ([5]; relative to 0 uM KAM = 0) was -0.1587 and the “10 uM KAM” value ([5]; relative to 0 uM KAM = 0) was -0.127. The IC50 [6, 7] was over 10 µM, the “0.001 uM KAM” value ([6]; relative to 0 uM KAM = 0) was 0.02436 and the “0.01 uM KAM” value ([6]; relative to 0 uM KAM = 0) was -0.01322. The “0.1 uM KAM” value ([6]; relative to 0 uM KAM = 0) was -0.08739, the “1 uM KAM” value ([6]; relative to 0 uM KAM = 0) was -0.1339 and the “10 uM KAM” value ([6]; relative to 0 uM KAM = 0) was -0.1871.
